In patent US4853334A, “Method for the degradation of volatile chlorinated aliphatic hydrocarbons using pseudomonas fluorescens” (Microlife Technics, Inc., priority 1988, dated 1989):
Values joined by “and” are separate entries in the source; they are usually repeats but may differ in a detail not shown here. Identical values can stand only once.

What was measured:
[1] = tested on: Pseudomonas fluorescens NRRL-B-18296; assay: Degradation of halogenated hydrocarbons by the strain (general statements); type: cell-based
[2] = tested on: Pseudomonas fluorescens NRRL-B-18296; assay: Degradation of various chloroaliphatic carbon sources in minimal medium broth (Example 3); type: cell-based; settings: 100 ppm; mmo with 0.5% glucose, 0.005% yeast extract, 0.4% potassium nitrate; 10^6 bacteria/ml; 25° C., 24 hours
Experimental: (§1) In Examples 3 to 6, compounds of interest were quantitated using a Perkin-Elmer (model 8500) gas chromatograph equipped with an HS-6 headspace analyzer (Perkin-Elmer, Norwalk, CT). The instrument was fitted with a 6 foot stainless steel Sp2100 column (Supelco, Bellefonte, PA). Carrier gas flow rate (helium) was 20 ml/min. with an isothermal column temperature of 60° C. Injector and detector temperatures were 150° C. and 200° C. respectively.
(§2) All sample vials were equilibrated at 80° C. in the headspace analyzer for 10 minutes. Vial pressurization times of 30 seconds and injection times of 6 seconds were both controlled by programmed instrument time functions.
(§3) Calibrations were made by the external standard method using the internal data handling capabilities of the instrument. 100 ppm standards were prepared by dispensing 10 ul of the compounds into a serum bottle containing 100.0 g of chilled media analogous to experimental vials. Once the compound was completely dissolved, 2.00 g of the mixture was delivered by syringe to a headspace vial and sealed for subsequent headspace GC analysis.
(§4) Analysis of experimental vials was conducted by removing an aliquot by syringe and delivering 2.00 g to a headspace vial. Vials (6 ml) specified for use with the headspace analyzer were sealed using 19 mm TFE/silicone rubber septa and 20 mm crimp top seals (Alltech Associates, Deerfield, IL). A hand operated crimper was utilized.
The experiments were accomplished in 50 ml of minimal medium (mmo) that was modified. The modified minimal media (mmo) contained the sodium-potassium phosphate buffer at 0.06 M final concentration. The modified (mmo) was supplemented to a final concentration with 0.5% glucose, 0.005% yeast extract, 0.4% potassium nitrate and the volatile chloroaliphatic compound at 100 ppm. The flasks were inoculated with Pseudomonas fluorescens NRRL-B-18296 at 10^6 bacteria/ml. The remaining headspace in the vials was then filled with pure oxygen (approximately 60 ml) and sealed using 19 mm TFE/silicone rubber septa with 20mm crimp top seals. A hand operated crimper was utilized. The sealed vials were then shaken at 350 rpm on a New Brunswick gyrotary shaker (New Brunswick Scientific, Edison, NJ) at 25° C. for 24 hours.
Samples in triplicate (2.00 g) were removed after the 24 hour incubation. The samples were sealed in 6 ml vials and subjected to headspace analysis.
^1 values reported as percentage amounts of 100 ppm carbon source

[3] = tested on: Pseudomonas fluorescens NRRL-B-18296; assay: Growth on volatile chlorinated carbon sources (minimal media, vapor phase); type: cell-based; set-up: key: +: Growth; -: no growth; settings: 72 hours at 25° C., minimal media (mmo), carbon source in vapor phase of sealed container
Experimental: ^1 Incubation was for 72 hours at 25° C. on minimal media
(mmo). Volatile carbon sources were supplied in the vapor phase of a
sealed container. +, Growth; -, no growth.

[4] = tested on: Pseudomonas fluorescens NRRL-B-18296; assay: Degradation of a mixture of 1,2-dichloroethane and 1,2-dichloropropane, 0.1% glucose (Example 4); type: cell-based; settings: for % degradation: mixture, 100 ppm each, 0.1% glucose, 0.4% potassium nitrate, 10^6 bacteria/ml, 25° C., 168 hours
Experimental: as §1, §2, §3, §4
The potassium nitrate provides an assured oxygen source for this strain, since the degradations must be conducted under aerobic conditions.
^1 Experiments were accomplished in 100 ml minimal medium (mmo) supplemented with 0.1% glucose, 100 ppm of 1,2-dichloroethane, 100 ppm of 1,2-dichloropropane, and 0.4% potassium nitrate. The flasks were inoculated with Pseudomonas fluorescens NRRL-B-18296 at 10^6 bacteria/ml, sealed and shaken at 350 rpm on a New Brunswick gyrotary shaker (New Brunswick Scientific, Edison, NJ) at 25° C. for 168 hours. The shaking provides further oxygen to the medium.

[5] = tested on: Pseudomonas fluorescens NRRL-B-18296; assay: Degradation of a mixture of 1,2-dichloroethane and 1,2-dichloropropane, 1.0% glucose (Example 5); type: cell-based; settings: glucose concentration increased to 1.0%
Experimental: as §1, §2, §3
Analysis of experimental vials was conducted by removing an aliquot by syringe and delivering 2.00 g to a headspace vial. Vials (6 ml) specified for use with the headspace analyzer were sealed using 19 mm TFE/silicone rubber septa and 20 mm crimp top seals (Alltech Associates, Deerfield, IL). […]

[6] = tested on: Pseudomonas fluorescens NRRL-B-18296; assay: Induction of degradation of 1,2-dichloroethane using various carbon sources (Example 6); type: cell-based
Experimental: as §1, §2
as §3, with “analysis. […]” for “analysis.”
Individual flasks were supplemented with the following carbon sources at 2mM: ethanol, sodium acetate, glucose, sodium succinate, sodium benzoate, ortho cresol or meta cresol. […] After incubation for 24 hours, the vials were analyzed directly on the headspace gas chromatograph.

Acinetobacter sp. = settings: induced by prior growth on phenol; Nelson et al.; cited from earlier work
[7] = formed by anaerobic methanogens; Bouwer 1983; cited from earlier work

Row | Compound | Degradation by the strain (in words) [1] | % degradation [2] | Growth on carbon source [3] | other results
1 | CC(Cl)(Cl)Cl [1,1,1-trichloroethane] | not degraded | 0% |  | 
2 | ClCC(Cl)Cl [1,1,2-trichloroethane] | can be degraded | 23% | + | 
3 | ClCCCl [1,2-dichloroethane] | can be degraded | 10% | + | Degradation upon extended degradation and supplementing with more glucose [4]: substantially completely degraded; % degradation [4]: 23.3% and 23%; degradative rate, with respect to time [5]: increased
4 | CC(Cl)CCl (stereo not drawn) [1,2-dichloropropane] | can be degraded | 3% | + | Degradation upon extended degradation and supplementing with more glucose [4]: substantially completely degraded; % degradation [4]: 32.1% and 32%; degradative rate, with respect to time [5]: increased
5 | ClCCCCl [1,3-dichloropropane] |  | 0% | - | 
6 | CC(C)(Cl)Cl [2,2-dichloropropane] | can be degraded | 7% | + | 
7 | ClC(Cl)(Cl)Cl [Carbon tetrachloride] | not degraded |  |  | 
8 | CC(O)C(=O)O (stereo not drawn) [Sodium lactate] |  |  |  | Suitability as carbon source for the strain ([6]; 20 mM sodium lactate pre-culture, 25° C., 24 hours): effective carbon source
9 | ClCCl [dichloromethane] | not degraded |  |  | 
10 | O=C[C@H](O)[C@@H](O)[C@H](O)[C@H](O)CO [glucose] |  |  |  | Induction of degradation of 1,2-dichloroethane ([6]; short time period of degradation): best carbon source to induce the degradation of 1,2-dichloroethane
11 | ClC(Cl)=C(Cl)Cl [tetrachloroethylene] |  | 0% | - | 
12 | ClC=C(Cl)Cl [trichloroethylene] | can be degraded | 2% | + | aerobic metabolism (in words) (Acinetobacter sp.): aerobic metabolism
13 | C=CCl [vinyl chloride] |  |  |  | toxicity relative to haloaliphatic hydrocarbons [7]: more toxic than the haloaliphatic hydrocarbons
